One series concerns M. tuberculosis IgM. On the set-up: species or system New Zealand White rabbits. Particulars: rabbit, in vivo.
Series [1] in a line: Stability of PDAG to hydrolysis. It is filed as physicochemical. The following applies: acidic conditions.
For series [2], the system named is AR39 Chlamydia pneumoniae. Put plainly: Chlamydia pneumoniae clearance from infected THP-1 monocytes (flow cytometry). It is filed as cell-based. The following applies: 25 ng/ml and 50 ng/ml. Here is the method: THP-1 monocytes (5×10^4 cells/well) were cultured in Hank's Buffered Saline 1 with 10% FBS in a 24-well microplate. Cells were infected with […] AR39 Chlamydia pneumoniae (CPn) bacteria cells to give an MOI=1 and the infected cells were maintained for 72 hours after infection with a daily media change. Cells were either treated with the PDAG vehicle (0.01% Tween-20 in DMSO) or PDAG (25 ng/ml and 50 ng/ml) 24 hours prior to infection or 24 hours after infection. After the 72 hour incubation period cells were harvested and permeabilized with Cytofix/Cytoperm (BD Pharmingen) and mouse α-CPn monoclonal IgG (clone 61C75) was added and the permeabilized cells incubated for 1 hour. After incubation cells were washed and FITC labeled α-mouse IgG was added and incubated for 1 hour. Cells were again harvested and washed. Quantitation of infected cells was measured by flow cytometry. The viability of cells was determined by trypan blue exclusion.
Background: In flow cytometry, cells or beads pass a laser one at a time.

For another series, the system named is IL-6. Put plainly: IL-6 mRNA (real-time PCR) and IL-6 protein (ELISA) in fibroblasts stimulated with PDAG. The class given is cell-based. Particulars: 100 pg/ml PDAG, 24 h. Here is the method:
Fibroblasts were stimulated with synthetic PDAG for 24 h. RNA was extracted from the fibroblasts and IL-6 transcripts were measured by real-time PCR and IL-6 protein was measure in the media by ELISA. […] Likewise approximately 2-fold more IL-6 protein in the media of the PDAG treated fibroblasts (P=0.0001) was measured.
(Quantitative PCR measures a nucleic acid by following its amplification.)

A further series concerns NALP3. Put plainly: NALP3 transcripts in primary human fibroblasts incubated with PDAG. The class given is cell-based. Particulars: 100 pg/ml, overnight, P=0.007. The protocol:
(§1) mRNA was extracted from primary human fibroblasts incubated overnight with 100 pg/ml synthetic PDAG. NALP3 and NFκB transcripts were measured.

For the next series, the system named is NFκB. In words: NFκB transcripts in primary human fibroblasts incubated with PDAG. The class given is cell-based. Particulars: 100 pg/ml, overnight, P=0.4. The protocol: as §1
Another series deals with Hepatitis B virus. Put plainly: HBV replication in HepDES19 cells (core DNA Southern blot). The following applies: HepDES 19 cells. The class given is cell-based. Here is the method: A tetracycline inducible HBV-stable cell line, HepDES19 cells (Guo, 2007), were maintained in DMEM/F-12 medium with penicillin and streptomycin (Invitrogen), 10% FBS, 500 μg/ml G418 (Invitrogen) and 1 μg/ml tetracycline (Sigma-Aldrich, St. Louis, Mo.). To initiate the HBV replication in HepDES19 cells, tetracycline was withdrawn from the medium and the cell was cultured for 4-5 days before viral DNA analysis. To treat the cells with pDAG, the peptide was added in the tetracycline free medium and supplied on the cell culture daily. The concentration of solvent DMSO was adjusted to 0.01% in every treatment.
HBV core DNA was extracted from pDAG-treated HepDES19 cells as described previously (Guo, 2009). Briefly, cells from one 35 mm dish were lysed with 0.5 ml of lysis buffer (10 mM Tris-HCl pH 8.0, 10 mM EDTA, 1% NP40 and 2% sucrose) at 37° C. for 10 minutes. Cell debris and nuclei were removed by centrifugation and the supernatant was mixed with […] of 35% polyethylene glycol (PEG-8000) containing 1.5 M NaCl. After 1 hour incubation in ice, viral nucleocapsids were pelleted by centrifugation at 10,000 rpm for 5 min at 4° C., followed by 1 hour digestion at 37° C. in 200 μl of digestion buffer [0.5 mg/ml pronase (Calbiochem), 0.5% SDS, 150 mM NaCl, 25 mM Tris-HCl pH 8.0, and 10 mM EDTA]. […]

Another series deals with Salmonella typhimurium. In words: Lethal Salmonella typhimurium challenge in mice. It is filed as in vivo, Swiss Webster mice. Here is the method:
Swiss Webster mice were challenged with a lethal dose, 5×10^3 cfu/mouse of Salmonella typhimurium. Fifteen of the mice were treated with 5 μg/ml PDAG 24 hours prior to the lethal inoculation. Mice were maintained and monitored daily for 10 days. […] By day 10, 12 mice in the PDAG treated group remained alive, whereas all had died in the untreated group. P<0.0001.

Where no end group is shown, it is not given here. DAG = diacylglycerol ester at the C-terminus

Turning to acALYDKGYTSKEQKDCVGI-DAG [native PDAG], in the series with M. tuberculosis IgM, the “IgM titer, FCA+PDAG vs FCA only” value is given as “significantly greater”. In addition, the lability to hydrolysis result in series [1] is reported as “especially labile to hydrolysis under acidic conditions”.
For “PDAG peptide: Peptide portion of PDAG without the lipid moiety (acALYDKGYTSKEQKDCVGI, SEQ ID NO:8) (Ac-ALYDKGYTSKEQKDCVGI)”, the “Chlamydia pneumoniae clearance from infected monocytes” value in series [2] is recorded as “induce Chlamydia pneumoniae clearance”.
In the case of “acALYDKGYTSKEQKDCVGI-DAG (Ac-ALYDKGYTSKEQKDCVGI-{DAG}) [PDAG, Peptidyl diacylglyceride: N-acetylated 18-mer peptide esterified at C-terminal isoleucine to 1-stearoyl-2-arachidonoyl-sn-glycerol]”, in the series on IL-6 (ELISA, vs control, P=0.0001), the “IL-6 protein in the media” value is recorded as “approximately 2 fold”. In the series on IL-6 (vs untreated cells, P=0.001), the “IL-6 mRNA levels” value is on record as “increase IL-6 mRNA levels”. In the series with NALP3, this substance displayed an NALP3 transcripts increase of 1.75 fold. In the series with NFκB, the NFκB transcripts increase entry is “did not”. Moreover, the “Chlamydia pneumoniae clearance from infected monocytes” value in series [2] is recorded as “induce Chlamydia pneumoniae clearance”. In the series on Hepatitis B virus, the “Hepatitis B virus replication” value is listed as “suppresses Hepatitis B virus replication”. Moreover, the “antigen specific IgM production” value in the series with M. tuberculosis IgM is on record as “two-fold increase”. The “mice remaining alive by day 10” value in the series on Salmonella typhimurium (fifteen treated mice, 5 μg/ml PDAG 24 hours prior to lethal inoculation, all untreated died, P<0.0001) amounted to 12 mice. The disease progression entry in the series with Salmonella typhimurium (mice infected with a lethal dose of Salmonella typhimurium) is reported as “significantly delays disease progression”. The “day on which mortality was first observed” value in the series on Salmonella typhimurium (mice, 5×10^3 cfu/mouse, 5 μg/ml PDAG 24 hours prior to inoculation, control group day 4) worked out at 7 days.

For the origin of these results see patent publication US9662370B2, “Peptidyl diacylglycerides” (priority 2008, dated 2017).
